{
  "source": "patent US10954549B2",
  "about": "“Detection and classification of an anticoagulant using a clotting assay” (Haemonetics Corporation, priority 2014, dated 2021)",
  "molecules": {"B1": {"name": "idarucizumab: reversal agent that reverses the anticoagulant effect of dabigatran (Boehringer Ingelheim) (antibody, chains of the INN, looked up, V domains shown)", "VH": "QVQLQESGPGLVKPSETLSLTCTVSGFSLTSYIVDWIRQPPGKGLEWIGVIWAGGSTGYNSALRSRVSITKDTSKNQFSLKLSSVTAADTAVYYCASAAYYSYYNYDGFAYWGQGTLVTVSS", "VL": "DVVMTQSPLSLPVTLGQPASISCKSSQSLLYTDGKTYLYWFLQRPGQSPRRLIYLVSKLDSGVPDRFSGSGSGTDFTLKISRVEAEDVGVYYCLQSTHFPHTFGGGTKVEIK"}},
  "key": {"[1]": {"tested_on": "blood from healthy volunteers", "test": "Thromboelastography R time of spiked blood in the presence of the FXa reagent", "assay_type": "biochemical, human", "conditions": "in vitro spiking, increasing concentrations", "experimental": "Blood from healthy volunteers known not to be taking any oral anticoagulant and without any other significant health issues are analyzed using the FXa or the Ecarin reagent in a TEG® hemostasis analyzer. The FXa reagent (i.e., the Factor Xa reagent) is used to detect the presence (or absence) of an anticoagulant in the blood component being tested. In absence of any oral anticoagulant, the FXa reagent will accelerate the clotting process and result in a very short R-time. In presence of direct thrombin inhibitors and/or anti-Factor Xa anticoagulant(s), the process is slowed down and will cause elongation of the R-time. This difference in R-time is utilized to detect the presence of the oral anticoagulant. The R-time generated from multiple donors was used to construct a reference range. Blood was spiked with either direct thrombin inhibitors or anti-Xa(s) at different concentrations and analyzed using the FXa reagent or the Ecarin reagent. The drug concentrations chosen represent the published therapeutic ranges for these two classes of drugs. This assay was repeated in multiple donors to account for possible donor variations."}, "citrated whole blood [2]": {"tested_on": "citrated whole blood", "test": "TEG Kaolin test of blood spiked with anticoagulant", "assay_type": "biochemical, human", "from_the_text": "(§1) The TEG clotting assay was used to determine if low, normal, and high doses of dabigatran, rivaroxaban, and apixaban could be detected in blood spiked with these compounds. Three oral anticoagulants (OAC), namely dabigatran, rivaroxaban, and apixaban, were spiked into blood obtained from 14 healthy volunteer human donors. For each OAC tested, citrated blood from three donors was spiked with three different concentrations of the active drug (i.e., the compound). The spiked blood samples and control samples spiked with diluent were tested with the TEG® 5000 Thrombelastograph® Hemostasis Analyzer (Haemonetics Corporation, Braintree, Mass., USA) using the Kaolin and RapidTEG® reagents (Haemonetics). Each sample was run in triplicate. All samples were tested with and without ecarin (purchased from Enzyme Research Laboratories, South Bend, IN). This study was IRB approved and all donors were over 18 and signed informed consent forms.\nDabigatran stock was prepared from the active dabigatran moiety (Alsachim, France) by dissolution in 0.1M HCl and further dilution in 1:1 DMSO:H20. […] Tubes of citrated blood were spiked with this dabigatran stock to create final concentrations of 500, 200, and 50 ng/mL of citrated whole blood.\nRivaroxaban stock was prepared by agitation of a 20 mg Xarelto tablet (Jannsen, Titusville, N.J.) in a 1:1 DMSO: H20 solution, which was diluted to a final concentration of 20 ng/uL rivaroxaban in 1:1 DMSO:H20. Tubes of citrated blood were spiked with this rivaroxaban stock to create final concentrations of 500, 89, and 22 ng/mL in citrated whole blood. […] Apixaban stock was prepared in a similar manner from a 2.5 mg Eliquis tablet (Bristol-Myers Squibb, New York, N.Y.), with final concentrations of 1000, 500, and 250 ng/mL in whole blood. Apixaban is approved for prevention of VTE in elective hip or knee replacement surgery (2.5 mg BID) and for prevention of stroke and systemic embolism in patients with non-valvular AF (5 mg BID) (see Bristol-Myers SP, EEIG. apixaban summary of product characteristics). […] Control samples, prepared for each tested drug, included a solvent control containing only citrated blood and the diluent used to dilute the drug stock, and an unadulterated citrate blood tube.\nTesting was performed on TEG-5000 analyzers (Haemonetics Corp., Braintree, Mass., USA) using Kaolin vials, 0.2M CaCl2, RapidTEG (rTEG) vials, diluent water, and disposable clear cups and pins provided by the manufacturer (Haemonetics, Braintree, Mass.), and ecarin (Enzyme Research Laboratories, South Bend, Ind.). All testing was performed in triplicate at each dose, and allowed to continue until the MA (maximum amplitude) parameter defined. The various components of the TEG tracing are depicted in FIG. 3A. The Kaolin test generates an R parameter, which is measured in minutes, and is the time elapsed from the initiation of the test until the point where the onset of clotting provides enough resistance to produce a 2 mm amplitude reading on the TEG tracing. This parameter represents the initiation phase of coagulation related to the function of enzymatic clotting factors. The R parameter has a normal range of 5 to 10 min for kaolin. A prolonged R time indicates slower clot formation. K is a measurement of the time interval from the split point to the point where fibrin cross-linking provides enough clot resistance to produce a 20 mm amplitude reading. The α angle is the angle formed by the slope of a tangent line traced from the R to the K time and a central line measured in degrees. K time and the α angle denote the rate at which the clot strengthens, and is representative of thrombin's cleaving of the available fibrinogen into fibrin. The MA indicates the point at which clot strength reaches its maximum amplitude, measured in millimeters on the TEG tracing, and reflects the end result of maximal platelet-fibrin interaction via the GPIIb-IIIa receptors (see Khurana S et al., J Lab Clin Med. 130:401-411, 1997). […]"}, "citrated whole blood [3]": {"tested_on": "citrated whole blood", "test": "rTEG with ecarin test of spiked blood", "assay_type": "biochemical, human", "from_the_text": "as §1\n(§2) 340 μL of the citrated blood sample was added to the cup with these two reagents, and the contents of the cup were mixed 3 times by drawing the contents of the cup up into the pipette and redispensing it into the cup. The test was started immediately after mixing and allowed to run until the MA parameter had defined. The rTEG with ecarin test was performed as the rTEG test above, using 20 μL of an ecarin/CaCl2 solution (0.16M CaCl2; 19EU/mL ecarin)."}, "citrated whole blood [4]": {"tested_on": "citrated whole blood", "test": "TEG kaolin with ecarin test of spiked blood", "assay_type": "biochemical, human", "from_the_text": "as §1\nFor the kaolin test, 1 mL of citrated blood sample was mixed with kaolin and 340 microliters (μL) of this blood was added to a TEG cup containing 20 μL of 0.2M CaCl2 for recalcification. The kaolin with ecarin test was performed in a similar fashion, using 20 μL of an ecarin/CaCl2 solution (0.16 M CaCl2; 19 EU/mL ecarin).\nEcarin is derived from the venom of the saw-scaled viper, Echis carinatus. Ecarin activates prothrombin (the precursor of thrombin—see FIG. 5). This activation of prothrombin by ecarin produces meizothrombin, a prothrombin-thrombin intermediate which has a low level of procoagulant enzymatic activity.\nHealthy human volunteers (who are not being administered any anticoagulant), donated blood. Following donation, the blood collected from the donors (which was added to citrate to prevent clotting) was divided into portions, and portions of the blood were spiked with either nothing, dabigatran, or rivaroxaban. The portions were then assayed using thromboelastography, including assays performed in the presence of ecarin."}, "[5]": {"conditions": "cited from earlier work"}, "citrated whole blood [6]": {"tested_on": "citrated whole blood", "test": "RapidTEG (rTEG) test of blood spiked with anticoagulant", "assay_type": "biochemical, human", "from_the_text": "as §1\nThe RapidTEG (rTEG) test incorporated both tissue factor and kaolin to generate the conventional kaolin parameters as well as the TEG-ACT parameter, which is measured in seconds. The TEG-ACT is equivalent to the Activated Clotting Time (see Chavez J. J. et al., Anesth. Analg. 99:1290-1294, 2004) and has a normal range of 86 to 118 seconds. A prolonged TEG-ACT time indicates slower clot formation. In addition, velocity curves derived from the above mentioned kaolin and rTEG tests were plotted using TEG software. These curves represent the speed of clot propagation (MRTG, Maximum Rate of Thrombus Generation; and TMRTG, Time to Maximum Rate of Thrombus Generation) (see FIG. 3B).\nFor the RapidTEG (rTEG) test, the reagent was reconstituted with 20 μL diluent water, and allowed to stand for 5 minutes per manufacturer instructions. Ten μL of this reconstituted reagent was added to the TEG cup with 20 μl 0.2M CaCl2 for recalcification.\nas §2"}, "porcine plasma": {"tested_on": "porcine plasma", "test": "TEG 6S DTI channel R-time, porcine experimental trauma model", "assay_type": "in vivo", "experimental": "The TEG®6S system (Haemonetics Corp., Braintree, Mass.) is based on viscoelasticity measurements using resonance frequency and disposable multi-channel microfluidic cartridges. Blood and plasma from healthy volunteers were spiked with dabigatran in the therapeutic range (in increasing concentrations) and tested with an OAC cartridge with an ecarin based, direct thrombin inhibitor (DTI) channel. This channel was also evaluated with porcine plasma from an experimental trauma model (n=6) where dabigatran levels were measured with dilute TT (Hemoclot®). TEG 6s R-time (reaction time) was correlated to the drug levels."}},
  "data": [
    {"molecule": "COc1ccc(-n2nc(C(N)=O)c3c2C(=O)N(c2ccc(N4CCCCC4=O)cc2)CC3)cc1", "note": "[apixaban, Apixaban]", "values": [
      {"measurement": "R-time compared to the reference range, FXa reagent", "setting": "[1]", "value": "dose dependent elongation of the R-time"},
      {"measurement": "MA versus control group", "setting": "citrated whole blood [2]; 250 ng/mL, still within normal range", "value": "significantly different from the control group"},
      {"measurement": "R time versus non-spiked blood sample", "setting": "citrated whole blood [2]; highest concentration tested", "value": "significantly higher"},
      {"measurement": "R, K, α, and MRTG parameters, statistical significance versus control", "setting": "citrated whole blood [2]; three concentrations per drug, Example 1", "value": "able to detect the presence of all tested concentrations"},
      {"measurement": "TEG-ACT times on addition of ecarin to the RapidTEG test", "setting": "citrated whole blood [3]", "value": "significantly decreases"},
      {"measurement": "RapidTEG α angle when ecarin was added", "setting": "citrated whole blood [3]; any of the studied concentrations", "value": "did not change"},
      {"measurement": "RapidTEG K values when ecarin was added", "setting": "citrated whole blood [3]; highest and lowest concentrations", "value": "significantly decreased"},
      {"measurement": "R time in the presence versus absence of ecarin", "setting": "citrated whole blood [4]; FIGS. 8A-8C", "value": "equivalent and significant shortening of R time"},
      {"measurement": "MA values with ecarin relative to samples run without ecarin", "setting": "citrated whole blood [4]; kaolin test", "value": "statistically different"},
      {"measurement": "R, K and TMRTG values on addition of ecarin to the kaolin test", "setting": "citrated whole blood [4]; treated and control groups", "value": "significant decrease"},
      {"measurement": "α and MRTG values on addition of ecarin to the kaolin test", "setting": "citrated whole blood [4]; treated and control groups", "value": "significant increase"},
      {"measurement": "half-lives compared", "setting": "[5]; in vivo", "value": "shorter half-lives than dabigatran"},
      {"measurement": "Cmax", "setting": "[5]; oral dose of 20 mg", "value": 460, "unit": "ng/mL"},
      {"measurement": "increased half-life", "setting": "[5]; patients with severe renal impairment compared to healthy volunteers", "value": "up to 44%"},
      {"measurement": "K, α and MRTG parameters versus control or between studied concentrations", "setting": "citrated whole blood [6]", "value": "did not show any statistical difference"},
      {"measurement": "TMRTG parameter sensitivity to presence of drug", "setting": "citrated whole blood [6]", "value": "not"},
      {"measurement": "MA values versus control", "setting": "citrated whole blood [6]; all studied concentrations", "value": "did not change"},
      {"measurement": "TEG ACT parameter versus control group", "setting": "citrated whole blood [6]; all tested concentrations (except rivaroxaban 22 ng/mL)", "value": "significantly different"},
      {"measurement": "ACT time versus non-spiked blood sample", "setting": "citrated whole blood [6]; medium and higher concentrations", "value": "significantly higher"}
    ]},
    {"molecule": "B1", "values": [
      {"measurement": "R-time after administration of the reversal agent", "setting": "porcine plasma; after dabigatran, trauma model, baseline 3.4±0.6 min", "value": "3.6 ± 0.6", "unit": "min"},
      {"measurement": "R time upon administration of the reversal agent", "setting": "porcine plasma; five separate swine plasma samples, FIG. 16", "value": "returned to baseline"}
    ]}
  ]
}
